Patent US20260240832A1, “USE OF NITROXOLINE COMPOUND IN ENHANCING EFFECT OF ANTIBACTERIAL AGENT” (Jiangsu Yahong Meditech Co., Ltd., priority 2022, published 2026)
Each block holds one compound with its values, some of them ahead of it.

Columns and labels:
[1] = tested on: carbapenem-resistant Acinetobacter baumannii; test: Chessboard microbroth dilution MIC/FIC, compound 1 in combination with meropenem; assay type: cell-based; conditions: for MIC: Acinetobacter baumannii; for Compound 1 MIC in combination: with meropenem; for Meropenem MIC in combination: with compound 1
Description: This experiment is designed to determine the minimum inhibitory concentration (MIC) of compound 1 in combination with meropenem against Acinetobacter baumannii (a strain resistant to carbapenem antibiotics) and to calculate the fractional inhibitory concentration (FIC) index.
Test bacteria: A total of 9 strains of Acinetobacter baumannii, all of which are resistant to carbapenem antibiotics (e.g., meropenem), are clinically isolated strains, and are provided by Shanghai Junji Medical Laboratory Co., Ltd.
(§1) According to the recommendation of the Clinical and Laboratory Standards Institute (CLSI), the microbroth dilution method designed by the chessboard method was used to determine the minimum inhibitory concentration (MIC) of compound 1 in combination with meropenem against the above strains, and the fractional inhibitory concentration (FIC) index was calculated.
Compound 1 was dissolved in dimethyl sulfoxide to obtain a stock solution I with a concentration of 1280 mg/L. The stock solution I was diluted to 512 mg/L with sterile water to obtain a gradient dilution first tube solution I. The gradient dilution first tube solution I was subjected to 1:1 gradient dilution with sterile water to obtain a working solution I with a gradient range of 512 to 0.25 mg/L.
Meropenem was dissolved in sterile water to obtain a stock solution II with a concentration of 5120 mg/L. The stock solution II was diluted to 1024 mg/L with sterile water to obtain a gradient dilution first tube solution II. The gradient dilution first tube solution II was subjected to 1:1 gradient dilution with sterile water to obtain a working solution II with a gradient range of 1024 to 0.5 mg/L.
50 μL of solution was taken from each tube of working solution I, and added to the drug sensitivity plate row by row starting from the second well of each row (in each row, the concentration of compound 1 increased from the second well to the last well). 50 μL of solution was taken from each tube of working solution II, and added to the drug sensitivity plate column by column starting from the second well of each column (in each column, the concentration of meropenem increased from the second well to the last well). As a result, a chessboard cross with different concentrations of the two drugs was formed (wherein, there was neither compound 1 nor meropenem in the intersection well of the first row and the first column; the wells of the first row except the intersection well only contained compound 1, and the wells of the first column except the intersection well only contained meropenem; except for the above wells, the remaining wells contained […] and meropenem).
According to the above process, the volume of the drug solution in each well containing only one drug of the drug sensitivity plate was 50 μL, thus 50 μL of sterile water was added to each well. 100 μL of sterile water was added to the intersection well of the first row and the first column. After that, 100 μL of bacterial solution (formulated according to step (3)) was added to all the wells of the drug sensitivity plate and mixed.
(§2) (2) The culture medium of the bacterial solution: Cation-Adjusted Mueller-Hinton Broth (CAMHB), a product of BBL, USA, batch number 9015952.
(§3) (3) Formulation method of bacterial solution: According to the direct colony suspension method, the test bacteria cultured overnight were prepared into a 0.5 McFarland turbidity tube using physiological saline. Then, the resulting solution was dilute 100 times with the above culture medium. 100 μL of the resulting bacterial solution was mixed well with the solution (100 μL) in each well of the drug sensitivity plate, and the final inoculation amount was 10^5 CFU/mL.
(§4) (4) Culture conditions: Culturing at 35±2° C. for 20 hours in air.
(1) The experimental results were determined according to the standard of CLSI 2019 M100 29th edition. […]

[2] = tested on: carbapenem-resistant Acinetobacter baumannii; test: Chessboard microbroth dilution MIC/FIC, compound A in combination with meropenem; assay type: cell-based; conditions: for MIC: Acinetobacter baumannii, read-out: Meropenem MIC alone; for Meropenem MIC in combination: with compound A
Description: This experiment is designed to determine the minimum inhibitory concentration (MIC) of compound A in combination with meropenem against carbapenem-resistant Acinetobacter baumannii and to calculate the fractional inhibitory concentration (FIC) index.
Test bacteria: 10 strains of carbapenem-resistant Acinetobacter baumannii are clinically isolated strains, and are provided by Shanghai Junji Medical Laboratory Co., Ltd.
as §1, with “A” for “1”
Compound A was dissolved in dimethyl sulfoxide to obtain a stock solution I with a concentration of 51200 mg/L. The stock solution I was subjected to 1:1 gradient dilution with dimethyl sulfoxide to obtain a dilution solution with a concentration range of 51200 to 25 mg/L. The corresponding concentrations were added to sterile water for 100-fold dilution to obtain working solution I with a concentration range of 512 to 0.25 mg/L.
Meropenem was dissolved in sterile water to obtain a stock solution with a concentration of 5120 mg/L. The […] stock solution was subjected to 1:1 gradient dilution with sterile water to obtain a working solution II with a concentration range of 512 to 0.25 mg/L.
According to the method in Example 1, a drug sensitive plate was prepared with working solution I and working solution II, and the specific process will not be repeated here.
as §2, §3, §4
(1) The experimental results were determined according to the standard of CLSI 2020 M100 30th edition.
wherein: FIC≤0.5 indicates synergistic effect; 0.5<FIC≤1.0 indicates additive effect; 1<FIC≤2.0 indicates irrelevant effect; and FIC>2 indicates antagonistic effect.

[3] = strain 18-J11-001, compound 1 + meropenem
[4] = strain 18-J11-002, compound 1 + meropenem
[5] = strain 18-J11-034, compound 1 + meropenem
[6] = strain 18-J11-097, compound 1 + meropenem
[7] = strain 18-J15-030, compound 1 + meropenem
[8] = strain 18-J21-095, compound 1 + meropenem
[9] = strain 18-J24-015, compound 1 + meropenem
[10] = strain 18-J40-021, compound 1 + meropenem
[11] = strain 18-J51-052, compound 1 + meropenem

MIC ([1]; strain 18-J11-001, read-out: Compound 1 MIC alone): 8 µg/mL
MIC ([1]; strain 18-J11-002, read-out: Compound 1 MIC alone): 4 µg/mL
MIC ([1]; strain 18-J11-034, read-out: Compound 1 MIC alone): 4 µg/mL
MIC ([1]; strain 18-J11-097, read-out: Compound 1 MIC alone): 8 µg/mL
MIC ([1]; strain 18-J15-030, read-out: Compound 1 MIC alone): 16 µg/mL
MIC ([1]; strain 18-J21-095, read-out: Compound 1 MIC alone): 8 µg/mL
MIC ([1]; strain 18-J24-015, read-out: Compound 1 MIC alone): 8 µg/mL
MIC ([1]; strain 18-J40-021, read-out: Compound 1 MIC alone): 8 µg/mL
MIC ([1]; strain 18-J51-052, read-out: Compound 1 MIC alone): 4 µg/mL
change of the MIC of meropenem by the combination ([1]; compound 1 + meropenem): significantly reduce
Compound 1 MIC in combination ([1]; strain 18-J11-001): 4 µg/mL
Compound 1 MIC in combination ([1]; strain 18-J11-002): 2 µg/mL
Compound 1 MIC in combination ([1]; strain 18-J11-034): 2 µg/mL
Compound 1 MIC in combination ([1]; strain 18-J11-097): 4 µg/mL
Compound 1 MIC in combination ([1]; strain 18-J15-030): 8 µg/mL
Compound 1 MIC in combination ([1]; strain 18-J21-095): 4 µg/mL
Compound 1 MIC in combination ([1]; strain 18-J24-015): 2 µg/mL
Compound 1 MIC in combination ([1]; strain 18-J40-021): 4 µg/mL
Compound 1 MIC in combination ([1]; strain 18-J51-052): 2 µg/mL
SMILES: O=[N+]([O-])c1c(Br)c(Cl)c2cccnc2c1O [Compound 1, 6-bromo-5-chloro-7-nitroquinolin-8-ol]
effect of the combination (summary of Table 1) ([1]; compound 1 + meropenem, strains resistant to carbapenem antibiotics): additive effect (0.5<FIC≤1.0 indicates additive effect)
FIC index [1, 3]: 0.750
Results [1, 3]: Additive
FIC index [1, 4]: 0.750
Results [1, 4]: Additive
FIC index [1, 5]: 0.750
Results [1, 5]: Additive
FIC index [1, 6]: 0.750
Results [1, 6]: Additive
FIC index [1, 7]: 0.625
Results [1, 7]: Additive
FIC index [1, 8]: 0.750
Results [1, 8]: Additive
FIC index [1, 9]: 0.750
Results [1, 9]: Additive
FIC index [1, 10]: 0.750
Results [1, 10]: Additive
FIC index [1, 11]: 0.625
Results [1, 11]: Additive

MIC ([2]; strain No. 1): 128 µg/mL
MIC ([2]; strain No. 2): 128 µg/mL
MIC ([2]; strain No. 3): 128 µg/mL
MIC ([2]; strain No. 4): 128 µg/mL
MIC ([2]; strain No. 5): 128 µg/mL
MIC ([2]; strain No. 6): 128 µg/mL
MIC ([2]; strain No. 7): 64 µg/mL
MIC ([2]; strain No. 8): 64 µg/mL
MIC ([2]; strain No. 9): 64 µg/mL
MIC ([2]; strain No. 10): 128 µg/mL
Meropenem MIC in combination ([2]; strain No. 1): 16 µg/mL
Meropenem MIC in combination ([2]; strain No. 2): 16 µg/mL
Meropenem MIC in combination ([2]; strain No. 3): 16 µg/mL
Meropenem MIC in combination ([2]; strain No. 4): 16 µg/mL
Meropenem MIC in combination ([2]; strain No. 5): 16 µg/mL
Meropenem MIC in combination ([2]; strain No. 6): 16 µg/mL
Meropenem MIC in combination ([2]; strain No. 7): 16 µg/mL
Meropenem MIC in combination ([2]; strain No. 8): 8 µg/mL
Meropenem MIC in combination ([2]; strain No. 9): 8 µg/mL
Meropenem MIC in combination ([2]; strain No. 10): 16 µg/mL
MIC ([1]; strain 18-J11-001, read-out: Meropenem MIC alone): 32 µg/mL
MIC ([1]; strain 18-J11-002, read-out: Meropenem MIC alone): 64 µg/mL
MIC ([1]; strain 18-J11-034, read-out: Meropenem MIC alone): 64 µg/mL
MIC ([1]; strain 18-J11-097, read-out: Meropenem MIC alone): 64 µg/mL
MIC ([1]; strain 18-J15-030, read-out: Meropenem MIC alone): 64 µg/mL
MIC ([1]; strain 18-J21-095, read-out: Meropenem MIC alone): 64 µg/mL
MIC ([1]; strain 18-J24-015, read-out: Meropenem MIC alone): 64 µg/mL
MIC ([1]; strain 18-J40-021, read-out: Meropenem MIC alone): 64 µg/mL
MIC ([1]; strain 18-J51-052, read-out: Meropenem MIC alone): 32 µg/mL
Meropenem MIC in combination ([1]; strain 18-J11-001): 8 µg/mL
Meropenem MIC in combination ([1]; strain 18-J11-002): 16 µg/mL
Meropenem MIC in combination ([1]; strain 18-J11-034): 16 µg/mL
Meropenem MIC in combination ([1]; strain 18-J11-097): 16 µg/mL
Meropenem MIC in combination ([1]; strain 18-J15-030): 8 µg/mL
Meropenem MIC in combination ([1]; strain 18-J21-095): 16 µg/mL
Meropenem MIC in combination ([1]; strain 18-J24-015): 32 µg/mL
Meropenem MIC in combination ([1]; strain 18-J40-021): 16 µg/mL
Meropenem MIC in combination ([1]; strain 18-J51-052): 4 µg/mL
SMILES: C[C@@H](O)[C@H]1C(=O)N2C(C(=O)O)=C(S[C@@H]3CN[C@H](C(=O)N(C)C)C3)[C@H](C)[C@H]12 [Meropenem, reference compound]
